Test results reported in patent publication US10457703B2, “Bile acid derivatives as FXR/TGR5 agonists and methods of use thereof” (ENANTA PHARMACEUTICALS, INC., priority 2015, dated 2019).

Target: human FXR (NR1H4) (Homo sapiens (Human), UniProt Q96RI1)
Assay: Human FXR (NR1H4) Assay (Gal4 promoter driven luciferase reporter, Indigo Bioscience kit);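 as to Efficacy (%): 100% equals the efficacy of CDCA; efficacy normalized to CDCA set as 100%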
Assay type: cell-based
Details: for EC50: Human FXR (NR1H4) Assay, potency ranges; for Emax: read-out: Efficacy (%)
Excerpt: ASSAYS Human FXR (NR1H4) Assay
Determination of a ligand mediated Gal4 promoter driven transactivation to quantify ligand binding mediated activation of FXR. FXR Reporter Assay kit purchased from Indigo Bioscience (Catalogue number: IB00601) to determine the potency and efficacy of compound developed by Enanta that can induce FXR activation. The principle application of this reporter assay system is to quantify functional activity of human FXR. The assay utilizes non-human mammalian cells, CHO (Chinese hamster ovary) cells engineered to express human NR1H4 protein (referred to as FXR). Reporter cells also incorporate the cDNA encoding beetle luciferase which catalyzes the substrates and yields photon emission. Luminescence intensity of the reaction is quantified using a plate-reading luminometer, Envision. Reporter Cells include the luciferase reporter gene functionally linked to an FXR responsive promoter. Thus, quantifying changes in luciferase expression in the treated reporter cells provides a sensitive surrogate measure of the changes in FXR activity. […] The assay is according to the manufacturer's instructions. In brief, the assay was performed in white, 96 well plates using final volume of 100 uL containing cells with different doses of compounds. Retrieve Reporter Cells from −80° C. storage. Perform a rapid thaw of the frozen cells by transferring a 10 ml volume of 37° C. cell recovery medium into the tube of frozen cells. Recap the tube of Reporter Cells and immediately place it in a 37° C. water bath for 5-10 minutes. Retrieve the tube of Reporter Cell Suspension from the water bath. Sanitize the outside surface of the tube with a 70% alcohol swab, and then transfer it into the cell culture hood. Dispense 90 μl of cell suspension into each well of the 96-well Assay Plate. Transfer the plate into 37° C. incubator, allowing the cells adherent to the bottom of the well. Dilute compounds in Dilution Plate (DP), and administrate to cells at Assay Plate (AP). DMSO content of the samples was kept at 0.2%. Cells were incubated for additional 22 hours before luciferase activities were measured. Thirty minutes before intending to quantify FXR activity, remove Detection Substrate and Detection Buffer from the refrigerator and place them in a low-light area so that they may equilibrate to room temperature. Remove the plate's lid and discard all media contents by ejecting it into an appropriate waste container. Gently tap the inverted plate onto a clean absorbent paper towel to remove residual droplets. Cells will remain tightly adhered to well bottoms. Add 100 μl of luciferase detection reagent to each well of the assay plate. Allow the assay plate to rest at room temperature for at least 5 minutes following the addition of LDR. Set the instrument (Envision) to perform a single 5 second “plate shake” prior to reading the first assay well. Read time may be 0.5 second (500 mSec) per well.

Chain of human FXR (NR1H4) (Q96RI1 whole entry, the tested form may be a part): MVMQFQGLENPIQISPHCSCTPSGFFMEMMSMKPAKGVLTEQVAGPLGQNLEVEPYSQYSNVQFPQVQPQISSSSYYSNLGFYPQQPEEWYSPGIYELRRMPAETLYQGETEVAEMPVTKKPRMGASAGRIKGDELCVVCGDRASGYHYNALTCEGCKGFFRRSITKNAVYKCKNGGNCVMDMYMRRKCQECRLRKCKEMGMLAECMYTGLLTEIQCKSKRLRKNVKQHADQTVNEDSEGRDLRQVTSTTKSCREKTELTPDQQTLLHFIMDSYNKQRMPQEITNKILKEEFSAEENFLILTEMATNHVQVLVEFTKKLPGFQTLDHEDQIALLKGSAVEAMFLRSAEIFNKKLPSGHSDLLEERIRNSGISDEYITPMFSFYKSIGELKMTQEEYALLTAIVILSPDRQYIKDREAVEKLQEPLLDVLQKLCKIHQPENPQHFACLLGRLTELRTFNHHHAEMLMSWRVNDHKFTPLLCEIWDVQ

Structure (SMILES) | EC50 | Emax
CC[C@H]1[C@@H](O)[C@@H]2[C@H](CC[C@]3(C)[C@@H]([C@H](C)CCCOC(=O)NS(=O)(=O)c4ccc(C)cc4)CC[C@@H]23)[C@@]2(C)CC[C@@H](O)C[C@@H]12 [Example 1] | 100 to 1000 nM | 422%
CC[C@H]1[C@@H](O)[C@@H]2[C@H](CC[C@]3(C)[C@@H]([C@H](C)CCCOC(=O)NS(=O)(=O)C4CCCCC4)CC[C@@H]23)[C@@]2(C)CC[C@@H](O)C[C@@H]12 [Example 2] | 100 to 1000 nM | 247%
CC[C@H]1[C@@H](O)[C@@H]2[C@H](CC[C@]3(C)[C@@H]([C@H](C)COC(=O)NS(=O)(=O)c4ccc(C(C)(C)C)cc4)CC[C@@H]23)[C@@]2(C)CC[C@@H](O)C[C@@H]12 [Example 4] | < 100 nM | 319%
CC[C@H]1[C@@H](O)[C@@H]2[C@H](CC[C@]3(C)[C@@H]([C@H](C)COC(=O)NS(=O)(=O)c4ccc(C)cc4)CC[C@@H]23)[C@@]2(C)CC[C@@H](O)C[C@@H]12 [Example 5] | 100 to 1000 nM | 85%
CC[C@H]1[C@@H](O)[C@@H]2[C@H](CC[C@]3(C)[C@@H]([C@H](C)COC(=O)NS(=O)(=O)c4ccc(OC(F)(F)F)cc4)CC[C@@H]23)[C@@]2(C)CC[C@@H](O)C[C@@H]12 [Example 6] | 100 to 1000 nM | 298%
CC[C@H]1[C@@H](O)[C@@H]2[C@H](CC[C@]3(C)[C@@H]([C@H](C)COC(=O)NS(=O)(=O)N(C)C)CC[C@@H]23)[C@@]2(C)CC[C@@H](O)C[C@@H]12 [Example 7] | 1000 to 10000 nM | 168%
CC[C@H]1[C@@H](O)[C@@H]2[C@H](CC[C@]3(C)[C@@H]([C@H](C)COC(=O)NS(=O)(=O)C4CCCCC4)CC[C@@H]23)[C@@]2(C)CC[C@@H](O)C[C@@H]12 [Example 8] | 100 to 1000 nM | 327%
CC[C@H]1[C@@H](O)[C@@H]2[C@H](CC[C@]3(C)[C@@H]([C@H](C)COC(=O)NS(=O)(=O)c4ccc(N5CCCCC5)cc4)CC[C@@H]23)[C@@]2(C)CC[C@@H](O)C[C@@H]12 [Example 9] | < 100 nM | 208%
CC[C@H]1[C@@H](O)[C@@H]2[C@H](CC[C@]3(C)[C@@H]([C@H](C)COC(=O)NS(=O)(=O)c4ccc(-c5ccccc5)s4)CC[C@@H]23)[C@@]2(C)CC[C@@H](O)C[C@@H]12 [Example 10] | < 100 nM | 259%
CC[C@H]1[C@@H](O)[C@@H]2[C@H](CC[C@]3(C)[C@@H]([C@H](C)COC(=O)NS(=O)(=O)c4ccc(C5CCCCC5)cc4)CC[C@@H]23)[C@@]2(C)CC[C@@H](O)C[C@@H]12 [Example 11] | < 100 nM | 224%
CC[C@H]1[C@@H](O)[C@@H]2[C@H](CC[C@]3(C)[C@@H]([C@H](C)COC(=O)NS(=O)(=O)c4ccc5ccccc5c4)CC[C@@H]23)[C@@]2(C)CC[C@@H](O)C[C@@H]12 [Example 12] | < 100 nM | 217%
CC[C@H]1[C@@H](O)[C@@H]2[C@H](CC[C@]3(C)[C@@H]([C@H](C)COC(=O)NS(=O)(=O)N4CCCC4)CC[C@@H]23)[C@@]2(C)CC[C@@H](O)C[C@@H]12 [Example 13] | 100 to 1000 nM | 324%
CC[C@H]1[C@@H](O)[C@@H]2[C@H](CC[C@]3(C)[C@@H]([C@H](C)COC(=O)NS(=O)(=O)c4ccc(N5CCCCC5)nc4)CC[C@@H]23)[C@@]2(C)CC[C@@H](O)C[C@@H]12 [Example 14] | < 100 nM | 270%
CC[C@H]1[C@@H](O)[C@@H]2[C@H](CC[C@]3(C)[C@@H]([C@H](C)COC(=O)NS(=O)(=O)c4ccc(N5CCOCC5)nc4)CC[C@@H]23)[C@@]2(C)CC[C@@H](O)C[C@@H]12 [Example 15] | < 100 nM | 197%
CC[C@H]1[C@@H](O)[C@@H]2[C@H](CC[C@]3(C)[C@@H]([C@H](C)COC(=O)NS(=O)(=O)c4ccc(-n5cccn5)nc4)CC[C@@H]23)[C@@]2(C)CC[C@@H](O)C[C@@H]12 [Example 16] | < 100 nM | 187%
CC[C@H]1[C@@H](O)[C@@H]2[C@H](CC[C@]3(C)[C@@H]([C@H](C)COC(=O)NS(=O)(=O)c4ccc(N5CCC5)cc4)CC[C@@H]23)[C@@]2(C)CC[C@@H](O)C[C@@H]12 [Example 17] | < 100 nM | 211%
CC[C@H]1[C@@H](O)[C@@H]2[C@H](CC[C@]3(C)[C@@H]([C@H](C)COC(=O)NS(=O)(=O)c4ccc(N5CCCCC5=O)cc4)CC[C@@H]23)[C@@]2(C)CC[C@@H](O)C[C@@H]12 [Example 18] | < 100 nM | 221%
CC[C@H]1[C@@H](O)[C@@H]2[C@H](CC[C@]3(C)[C@@H]([C@H](C)COC(=O)NS(=O)(=O)c4ccc(N5CCOCC5)cc4)CC[C@@H]23)[C@@]2(C)CC[C@@H](O)C[C@@H]12 [Example 19] | < 100 nM | 219%
CC[C@H]1[C@@H](O)[C@@H]2[C@H](CC[C@]3(C)[C@@H]([C@H](C)COC(=O)NS(=O)(=O)c4ccc(N5CCC(C)(C)CC5)cc4)CC[C@@H]23)[C@@]2(C)CC[C@@H](O)C[C@@H]12 [Example 20] | < 100 nM | 203%
CC[C@H]1[C@@H](O)[C@@H]2[C@H](CC[C@]3(C)[C@@H]([C@H](C)COC(=O)NS(=O)(=O)c4ccc(N5CCC(F)(F)CC5)cc4)CC[C@@H]23)[C@@]2(C)CC[C@@H](O)C[C@@H]12 [Example 21] | < 100 nM | 225%
CC[C@H]1[C@@H](O)[C@@H]2[C@H](CC[C@]3(C)[C@@H]([C@H](C)COC(=O)NS(=O)(=O)c4ccc(N5CCCCCC5)cc4)CC[C@@H]23)[C@@]2(C)CC[C@@H](O)C[C@@H]12 [Example 22] | < 100 nM | 262%
CC[C@H]1[C@@H](O)[C@@H]2[C@H](CC[C@]3(C)[C@@H]([C@H](C)COC(=O)NS(=O)(=O)c4ccc5ncccc5c4)CC[C@@H]23)[C@@]2(C)CC[C@@H](O)C[C@@H]12 [Example 23] | < 100 nM | 182%
CC[C@H]1[C@@H](O)[C@@H]2[C@H](CC[C@]3(C)[C@@H]([C@H](C)COC(=O)NS(=O)(=O)c4cnc5ccccc5c4)CC[C@@H]23)[C@@]2(C)CC[C@@H](O)C[C@@H]12 [Example 24] | < 100 nM | 193%
CC[C@H]1[C@@H](O)[C@@H]2[C@H](CC[C@]3(C)[C@@H]([C@H](C)COC(=O)NS(=O)(=O)c4ccc(-c5ccc(C(C)(C)C)cc5)s4)CC[C@@H]23)[C@@]2(C)CC[C@@H](O)C[C@@H]12 [Example 25] | 100 to 1000 nM | 182%
CC[C@H]1[C@@H](O)[C@@H]2[C@H](CC[C@]3(C)[C@@H]([C@H](C)COC(=O)NS(=O)(=O)c4ccc(-c5ccc(OC(F)(F)F)cc5)s4)CC[C@@H]23)[C@@]2(C)CC[C@@H](O)C[C@@H]12 [Example 26] | 100 to 1000 nM | 206%
CC[C@H]1[C@@H](O)[C@@H]2[C@H](CC[C@]3(C)[C@@H]([C@H](C)COC(=O)NS(=O)(=O)c4ccc(-c5ccc(C(F)(F)F)cc5)s4)CC[C@@H]23)[C@@]2(C)CC[C@@H](O)C[C@@H]12 [Example 27] | 100 to 1000 nM | 173%
CC[C@H]1[C@@H](O)[C@@H]2[C@H](CC[C@]3(C)[C@@H]([C@H](C)COC(=O)NS(=O)(=O)c4ccc(-c5ccc(F)cc5)cc4)CC[C@@H]23)[C@@]2(C)CC[C@@H](O)C[C@@H]12 [Example 28] | < 100 nM | 194%
CC[C@H]1[C@@H](O)[C@@H]2[C@H](CC[C@]3(C)[C@@H]([C@H](C)COC(=O)NS(=O)(=O)c4cccc(OC(C)(C)C)c4)CC[C@@H]23)[C@@]2(C)CC[C@@H](O)C[C@@H]12 [Example 29] | 100 to 1000 nM | 186%
CC[C@H]1[C@@H](O)[C@@H]2[C@H](CC[C@]3(C)[C@@H]([C@H](C)COC(=O)NS(=O)(=O)c4ccc(OC(C)(C)C)cc4)CC[C@@H]23)[C@@]2(C)CC[C@@H](O)C[C@@H]12 [Example 30] | < 100 nM | 261%
